The record followed here is patent US4797427A, “Aromatic diamines containing sulfonic acid aryl esters, a process for their production and their use in the production of polyurethane plastics” (Bayer Aktiengesellschaft, priority 1987, dated 1989).

Each structure is given as a SMILES string.

A short description of this data set: Ames test. Type of data set: cell-based.

For `Cc1c(N)cc(S(=O)(=O)Oc2ccccc2)cc1N` [2,6-diaminotoluene-4-sulfonic acid phenyl ester], the Ames test result was “Ames-negative”.
